Reference: patent EP0656355A1, “BIPHENYLMETHANE DERIVATIVE AND MEDICINE CONTAINING THE SAME” (WAKUNAGA SEIYAKU KABUSHIKI KAISHA, priority 1992, dated 1994)

Experiments:
renal hypertensive rats [1] = assay: Antihypertensive action on renal hypertensive rats (non-invasive); format: in vivo, male SD rat; settings: decreased rate of systolic blood pressure; orally administered at 10 mg/kg; non-invasive sphygmomanometer
Source text: (3) Antihypertensive action on renal hypertensive rats (non-invasive)
Renal hypertensive rats were each prepared by constricting the left renal artery of a male SD rat (age: 6 weeks old, body weight: 200-220 g) with a silver clip (inner diameter: 0.017 inch) under anesthesia. The rats whose systolic blood pressure arose to 160 mmHg or higher in 4-8 weeks after the constriction of the renal artery were used for the test. The rats were maintained on food and water ad libitum until immediately before the test was started. Each test compound which was suspended in 0.5% methyl cellulose was orally administered at 10 mg/kg. After the administration of the test compound, the systolic blood pressure was measured periodically by a non-invasive sphygmomanometer ("BP-98", manufactured by SOFTLON K.K.). In accordance with the following equation, a decreased rate of blood pressure (%) was calculated from the blood pressure values before and after the administration of the compound. [formula]

[2] = tested on: angiotensin II contraction in longitudinal ileac muscles; assay: Inhibitory activity to angiotensin II contraction in longitudinal ileac muscles excised from a guinea pig; format: cell-based, Hartley male guinea pig; settings: Cavia porcellus, 20 min; 50% contraction inhibition concentration; 10⁻⁸M angiotensin II; test compound reacted for 20 minutes; guinea pig ileum longitudinal muscle; read-out: IC₅₀
Experimental: (2) Inhibitory activity to angiotensin II contraction in longitudinal ileac muscles excised from a guinea pig
A Hartley male guinea pig (350-450 g in weight) was sacrificed under exsanguination, followed by the excision of its ileum.
A longitudinal muscle tissue (2 cm long) was prepared from the ileum in a manner known per se in the art. The sample was suspended in a 20-mℓ Magnus cylinder filled with a Tylode solution [composition (mM): NaCℓ 137, KCℓ 2.7, CaCℓ₂ 1.88, MgCℓ₂ 1.1, NaH₂PO₄ 0.4, NaH₂CO₃ 11.8 and glucose 5.6). The Tylode solution was incubated at 37°C and saturated with a mixed gas consisting of 95% O₂ + 5% CO₂. Using an isometric transducer ("TB-611T", manufactured by Nihon Kohden Corporation), variations in contraction were measured. The measurement results were recorded on a computer ("PC-9801", manufactured by NEC Corporation).
Under a load of 0.5 g initial tension, the longitudinal muscle sample was equilibrated in a nutrient solution for about one hour while being washed therewith at intervals of 15 minutes. Then, contracture by the administration of 80 mM of KCℓ was repeated twice. After conforming that the contraction occurred stably, the following test was conducted.
First, 10^-8M angiotensin II was administered to the sample and its maximum contraction was recorded. The test compound was then administered to the sample and they were reacted for 20 minutes. Administered again was 10⁻⁸M angiotensin II and the maximum contraction was measured. […] This test was repeated at increased concentrations of the test compound. A 50% contraction inhibition concentration (IC₅₀) was determined in accordance with a linear regressive calculation of the contraction inhibition rates.

renal hypertensive rats [3] = assay: Antihypertensive action on renal hypertensive rats (invasive); format: in vivo, male SD rat; settings: decreased rate of mean blood pressure; orally administered at 3 mg/kg; femoral artery cannula
Source text: (4) Antihypertensive action on renal hypertensive rats (invasive)
Renal hypertensive rats were each prepared by constricting the left renal artery of a male SD rat (age: 6 weeks old, body weight: 190-220 g) with a silver clip (inner diameter: 0.017 inch) under anesthesia. Antihypertensive action was studied employing the rats whose mean blood pressure arose to 150 mmHg or higher in 4-8 weeks after the constriction of the renal artery. On the day before the test, a cannula for measure of blood pressure was inserted into the femoral artery of each of the renal hypertensive rats under anesthesia and was allowed to remain in the artery. The rats were maintained on food and water ad libitum until immediately before the test was started. The cannula so inserted was connected to a blood pressure transducer and mean blood pressure was recorded on a polygraph. After the blood pressure became stable, the test compound which was suspended in 0.5% carboxymethyl cellulose was orally administered to each of the rats at 3 mg/kg. In accordance with the following equation, a decreased rate of blood pressure (%) was calculated from the blood pressure values before and after the administration of the test compound. [formula]

[4] = target: T1, angiotensin II (AII) receptor (Rattus norvegicus, UniProt P25095); assay: Inhibitory action against the binding with angiotensin II (AII) receptor, 125I-AII competition on cultured rat aortic smooth muscle cells; parameters: species or system male Wistar rat; settings: 50% substitution of ¹²⁵I-AII specific binding; ¹²⁵I-AII 2 x 10⁻¹⁰M; one hour at room temperature; rat vascular smooth muscle cells; read-out: IC₅₀
T1 construct: Vascular smooth muscle cells, which had been separated from the aorta of a male Wistar rat and cultured on a 24-well multiplate; endogenous in cells; host or cells: primary cultured vascular smooth muscle cells from the aorta of a male Wistar rat
T1 sequence (P25095 1-359): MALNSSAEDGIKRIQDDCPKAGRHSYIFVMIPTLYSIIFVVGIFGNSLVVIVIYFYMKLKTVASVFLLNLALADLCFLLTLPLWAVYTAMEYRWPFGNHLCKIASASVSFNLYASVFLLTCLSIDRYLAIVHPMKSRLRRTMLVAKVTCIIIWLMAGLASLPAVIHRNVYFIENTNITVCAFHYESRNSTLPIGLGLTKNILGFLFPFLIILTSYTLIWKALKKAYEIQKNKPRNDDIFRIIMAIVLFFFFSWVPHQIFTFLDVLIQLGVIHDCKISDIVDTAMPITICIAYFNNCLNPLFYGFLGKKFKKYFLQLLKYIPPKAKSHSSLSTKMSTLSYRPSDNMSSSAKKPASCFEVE
Experimental: (1) Inhibitory action against the binding with angiotensin II (AII) receptor, using cultured rat aortic smooth muscle cells The present test was conducted in accordance with the method reported by Chiu et al. in European Journal of Pharmacology, 157, 13-21(1988), though after some modifications. […] To each well, ¹²⁵I-AII (final concentration: 2 x 10⁻¹⁰M) was added together with or without a test compound to give a total volume of 0.2 mℓ. Then the wells were incubated for one hour at room temperature to make the ¹²⁵I-AII and the test compound competitively bind to the vascular smooth muscle cells. Each well was thereafter washed with an ice-cold buffer three times to remove unbound ¹²⁵I-AII. To the cells, 0.2 mℓ of a 1 mol/ℓ solution of sodium hydroxide was added to solubilize the bound ¹²⁵I-AII. A bound amount of ¹²⁵I-AII contained in the resulting cell solution was measured by a gamma counter. The above test was conducted for each compound at different concentrations of 3 doses or more. The inhibition rate against the specific binding with ¹²⁵I-AII at each concentration was calculated in accordance with an equation to be set out subsequently herein.

SMILES | Maximum action (%) (renal hypertensive rats [1]) | IC50 [2] | Maximum action (%) (renal hypertensive rats [3]) | IC50 [4]
Cc1nn(Cc2ccc(-c3ccccc3-c3nnn[nH]3)cc2)c(=NC(=O)C2CC2)s1 [Compound No.17, 2-Cyclopropylcarbonylimino-5-methyl-3-[2'-(1H-tetrazol-5-yl)biphenyl-4-yl]methyl-1,3,4-thiadiazoline] | 25.9% | 7.5 nM |  | 
CCc1nn(Cc2ccc(-c3ccccc3-c3nn[nH]n3)cc2)c(=NC(=O)C2CCCCC2C(=O)O)s1 (racemic) [Compound No.158, cis-2-[[5-Ethyl-3-[2'-(1H-tetrazol-5-yl)biphenyl-4-yl]methyl-1,3,4-thiadiazoline-2-yliden]aminocarbonyl] cyclohxanecarboxylic acid] |  | 0.51 nM | 38.4% | 
CCCc1nn(Cc2ccc(-c3ccccc3-c3nnn[nH]3)cc2)c(=NC(=O)C2CC2)s1 [Compound No.21, 2-Cyclopropylcarbonylimino-5-n-propyl-3-[2'-(1H-tetrazol-5-yl)biphenyl-4-yl]methyl-1,3,4-thiadiazoline] | 26.3% | 8 nM |  | 
CCc1nn(Cc2ccc(-c3ccccc3-c3nnn[nH]3)cc2)c(=NC(=O)c2ccccc2C(=O)O)s1 [Compound No.126, N-[5-Ethyl-3-[2'-(1H-tetrazol-5-yl)biphenyl-4-yl]methyl-1,3,4-thiadiazoline-2-yliden]phthalamic acid] |  |  | 27.6% | 32 nM
O=C(O)c1csc(=NC(=O)C2CC2)n1Cc1ccc(-c2ccccc2-c2nnn[nH]2)cc1 [Compound No.242, 2-Cyclopropylcarbonylimino-3-[2'-(1H-tetrazol-5-yl)biphenyl-4-yl]methylthiazoline-4-carboxylic acid] |  |  | 29.5% | 13 nM
CCc1nn(Cc2ccc(-c3ccccc3-c3nnn[nH]3)cc2)c(=NC(=O)C2=C(C(=O)O)CCC2)s1 [Compound No.130, 2-[[5-Ethyl-3-[2'-(1H-tetrazol-5-yl)biphenyl-4-yl]methyl-1,3,4-thiadiazoline-2-yliden]aminocarbonyl]-1-cyclopenten carboxylic acid] |  | 0.65 nM | 41.2% | 
